From US12612412B2, “Antiviral heterocyclic compounds” (Enanta Pharmaceuticals, Inc., priority 2021, dated 2026)
pEC50: −log10 of the molar value. Like-named read-outs stand apart in the source and are kept apart here.

Tests used:
[1] = test system: genotype A, "Long" strain RSV; assay: RSV-A assay (CPE protection in Hep-2 cells, ATPlite readout); assay type: cell-based, Human respiratory syncytial virus (HRSV); details: human respiratory syncytial virus, MOI 0.1, CPE protection
Outline: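 Hep-2 cells (8,000/well) were treated with 2-fold serial compound dilutions in duplicate and infected with RSV at MOI 0.1. After 5 days, protection from cytopathic effect was measured as cell viability by ATPlite luminescence, and EC50 values were derived.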

[2] = test system: HMPV clinical isolate TN/1501/A1; assay: HMPV antiviral assay Method-B (clinical isolate TN/1501/A1 in LLC-MK2 cells, ATP-Lite readout); assay type: cell-based, Human metapneumovirus (HMPV); details: human metapneumovirus, LLC-MK2, 144 h, hMPV WT1501 (clinical isolate TN/1501/A1), 6 days
Experimental: In vitro HMPV antiviral activity was evaluated using the clinical isolate TN/1501/A1 and LLC-MK2 cells (ATCC #CCL-7), an immortalized kidney epithelial cell line from Macaca mulatta. Compounds were resuspended in dimethyl sulfoxide (DMSO) at 10 mM and added to a 384-well source plate. The compounds were diluted and transferred onto 384-well assay plates using the Echo-650 automated liquid handling system (Beckman Coulter, Indiana). The test compounds were assessed in duplicate at a top concentration of 10 μM followed by 3-fold serial dilutions to give a total of 10 concentration points. DMSO control wells were also included on the assay plates and were either infected or not, acting as positive and negative controls. TN/1501/A1 virus infections were performed in-suspension with LLC-MK2 cells. The cells were washed twice with PBS and removed from the cell-culture flask with 0.25% trypsin-EDTA (Thermo Fisher Scientific, MA). The trypsin-EDTA was inactivated by resuspending in 2% fetal bovine serum (FBS) and OptiMEM (ThermoFisher Scientific, MA) containing 1% penicillin-streptomycin. Cells were pelleted by centrifuging for 5 minutes at 800 rpm, the supernatant was removed, and cells were suspended in PBS plus 100 μg/mL CaCl2). This step was performed twice. Cells were then resuspended in serum-free (SF)-OptiMEM containing 4 μg/mL TPCK-Trypsin (Sigma Aldrich, MO), 1% penicillin-streptomycin (ThermoFisher Scientific, MA) and 100 μg/mL CaCl2). Cells were counted and seeded at a density of 5,000 cells/well, 12.5 μL/well. Virus infections were done at a multiplicity of infection (MOI) of 0.014 with 12.5 μL added per well. SF-OptiMEM, 12.5 μL/well, was added to the appropriate wells to serve as a virus-free negative control for the assay. The final concentration of TPCK-trypsin was 2 μg/mL. Plates were incubated at 37° C., 5% CO2 for 6 days. After 6 days incubation, 12.5 μL of ATP-Lite (PerkinElmer, MA) was added to each well and the raw luminescence values were determined using the Envision 2104 (Perkin Elmer, MA). The average of the raw luminescence values for the cells and virus only positive control wells was subtracted from all conditions tested and the percent cell health was determined by dividing these values by the average of the cells only negative control wells. EC50 values were then calculated by non-linear regression using a four-parameter curve logistic equation. The curve fit model employed was XLFit Dose Response One Site Model 200: y=(A+(B/(1+((x/C)^D)))), where A is the minimum y value, B is the maximum y value, C is the log EC50 value, and D is the slope factor. […] EC50 ranges are as follows: A<0.5 μM; B>0.5 μM.

[3] = RSV-A Long strain, read-out: Human RSV-A (“Long”) EC50
[4] = genotype A “Long” strain RSV, read-out: Human RSV-A (“Long”)

Row | Structure (SMILES) | pEC50 [1, 3] | pEC50 [2] | pEC50 [1, 4]
1 | COc1cc(C(=O)NC[C@](O)(c2cc3c(c(-c4cc(Cl)c(F)c(Cl)c4)n2)OC[C@]3(C)C(N)=O)C(F)(F)F)cc2cc(Br)cnc12 [Example 672] |  | < 6.30 | > 6.70
2 | COc1cc(C(=O)NC[C@](O)(c2cc3c(c(-c4ccc(F)cc4)n2)OC[C@@]3(CF)C(N)=O)C2CC2)cc2cn(C3CC3)nc12 [Example 1063] | < 6.70 | < 6.30 | 
3 | COc1ccc(C(=O)NC[C@](O)(c2cc3c(c(-c4ccc(F)cc4)n2)OC[C@]3(C)C(N)=O)C(F)(F)F)c2[nH]ccc12 [Example 696] |  | < 6.30 | > 6.70
4 | COc1cc(C(=O)NC[C@](O)(c2cc3c(c(-c4ccc(F)cc4)n2)OC[C@]3(C)C(N)=O)C(F)(F)F)n2ccnc2c1 [Example 691] |  | < 6.30 | > 6.70
5 | COc1cc(C(=O)NC[C@](O)(c2cc3c(c(-c4ccc(F)cc4)n2)OC[C@]3(C)C(N)=O)C2CC2)cc2cc(Cl)c(Cl)nc12 [Example 1105] | > 6.70 | < 6.30 | 
6 | COc1cc(C(=O)NC[C@@](O)(c2cc3c(c(-c4cccc(OC(F)F)c4)n2)OC[C@]3(C)C(N)=O)C(F)(F)F)cc2cn(C3CC3)nc12 [Example 917] | > 6.70 | < 6.30 | 
7 | COc1cc(C(=O)NC[C@](O)(c2cc3c(c(-c4ccc5c(c4)OC(F)(F)O5)n2)OC[C@]3(C)C(N)=O)C2CC2)ccc1OC1CC1 [Example 830] | > 6.70 | > 6.30 | 
8 | COc1cc(C(=O)NC[C@](O)(c2cc3c(c(-c4ccc(F)c(F)c4F)n2)OC[C@]3(C)C(N)=O)C2CC2)cc2cn(C3(F)CC3)nc12 [Example 537] |  | > 6.30 | > 6.70
9 | C[C@]1(C(N)=O)COc2c1cc([C@@](O)(CNC(=O)c1cc(OC3CC3)c3nc(Cl)ccc3c1)C1CC1)nc2-c1ccc(F)c(F)c1Cl [Example 1194] | > 6.70 | < 6.30 | 
10 | Cc1cnc2c(Cl)cc(C(=O)NC[C@](O)(c3cc4c(c(-c5ccc(Cl)c(F)c5F)n3)OC[C@]4(C)C(N)=O)C3CC3)cc2c1 [Example 688] |  | > 6.30 | > 6.70
11 | C[C@]1(C(N)=O)COc2c1cc([C@@](O)(CNC(=O)c1ccc3nn(C4CC4)cc3c1)C1CC1)nc2-c1ccc(F)c(Cl)c1 [Example 815] |  | > 6.30 | > 6.70
12 | COc1cc(C(=O)NC[C@](O)(c2cc3c(c(-c4ccc(F)c(C(F)(F)F)c4)n2)OC[C@]3(C)C(N)=O)C2CC2)cc2cn(C(F)F)nc12 [Example 655] |  | > 6.30 | > 6.70
13 | COc1cc(C(=O)NC[C@](O)(c2cc3c(c(-c4ccc5c(c4)OC(F)(F)O5)n2)OC[C@@]3(C(N)=O)C(F)F)C2CC2)cc2cc(Cl)c(C)nc12 [Example 1015] | > 6.70 | > 6.30 | 
14 | C[C@]1(C(N)=O)COc2c1cc([C@@](O)(CNC(=O)c1ccc3nn(C4CC4)cc3c1)C1CC1)nc2-c1ccc(F)c(Br)c1F [Example 1101] | > 6.70 | > 6.30 | 
15 | COc1cc(C(=O)NC[C@](O)(c2cc3c(c(-c4cc(Cl)c(F)cc4F)n2)OC[C@]3(C)C(N)=O)C2(F)CC2)cc2cn(C(F)F)nc12 [Example 766] |  | > 6.30 | > 6.70
16 | COc1cc(C(=O)NC[C@](O)(c2cc3c(c(-c4cc(Cl)ccc4F)n2)OC[C@]3(C)C(N)=O)C2CC2)cc2cn(C3(Cl)CC3)nc12 [Example 842] | > 6.70 | > 6.30 | 
17 | COc1cc(C(=O)NC[C@](O)(c2cc3c(c(-c4cnc(Cl)c(Cl)c4)n2)OC[C@]3(C)C(N)=O)C(F)(F)F)cc2cn(C(F)F)nc12 [Example 589] |  | < 6.30 | > 6.70
18 | COc1cc(C(=O)NC[C@](O)(c2cc3c(c(-c4ccc(F)cc4)n2)OC[C@]3(C)C(N)=O)C(F)(F)F)cc2cc(C(F)F)nnc12 [Example 1069] | > 6.70 | < 6.30 | 
19 | C[C@]1(C(N)=O)COc2c1cc([C@@](O)(CNC(=O)c1cc(OCC(F)F)c3nn(C4(F)CC4)cc3c1)C(F)(F)F)nc2-c1csc2c(F)cccc12 [Example 611] |  | > 6.30 | > 6.70
20 | COc1cc(C(=O)NC[C@](O)(c2cc3c(c(-c4ccc(Cl)cc4)n2)OC[C@]3(C)C(N)=O)C(F)(F)F)cc2cn(C3CC3)nc12 [Example 585] |  | < 6.30 | > 6.70
21 | Cc1cnc2c(OC(F)F)cc(C(=O)NC[C@](O)(c3cc4c(c(-c5ccc(F)c(Cl)c5F)n3)OC[C@]4(C)C(N)=O)C3(F)CC3)cc2c1 [Example 753] |  | > 6.30 | > 6.70
22 | COc1cc(C(=O)NC[C@](O)(c2cc3c(c(-c4ccc(C#N)c(Cl)c4)n2)OC[C@]3(C)C(N)=O)C(F)(F)F)cc2cn(C(F)F)nc12 [Example 576] |  | < 6.30 | > 6.70

The next lines start with the values.

Row | pEC50 [1, 3] | pEC50 [2] | pEC50 [1, 4] | Structure (SMILES)
23 | > 6.70 | > 6.30 |  | Cc1cnc2c(Cl)cc(C(=O)NC[C@](O)(c3cc4c(c(-c5cc(F)c(F)cc5F)n3)OC[C@]4(C)C(N)=O)C(F)(F)F)cc2c1 [Example 1141]
24 | > 6.70 | > 6.30 |  | C[C@]1(C(N)=O)COc2c1cc([C@@](O)(CNC(=O)c1cc(Cl)c3nn(C4CC4)cc3c1)C1CC1)nc2-c1c(F)cc(Cl)cc1F [Example 1158]
25 | > 6.70 | > 6.30 |  | COc1cc(C(=O)NC[C@](O)(c2cc3c(c(-c4ccc5c(c4)OC(F)(F)O5)n2)OC[C@@]3(C(N)=O)C(F)F)C2CC2)cc2cc(C3CC3)nn12 [Example 1013]
26 |  | > 6.30 | > 6.70 | COc1cc(C(=O)NC[C@](O)(c2cc3c(c(-c4ccc(F)c(F)c4F)n2)OC[C@]3(C)C(N)=O)C2(F)CC2)cc2cn(C3(F)CC3)nc12 [Example 743]
27 | > 6.70 | > 6.30 |  | C[C@]1(C(N)=O)COc2c1cc([C@@](O)(CNC(=O)c1cc(Cl)c3nn(C4CC4)cc3c1)C1CC1)nc2-c1cccc(Br)c1F [Example 1099]
28 | > 6.70 | > 6.30 |  | COc1cc(C(=O)NC[C@](O)(c2cc3c(c(-c4cc(F)ccc4F)n2)OC[C@]3(C)C(N)=O)C(F)(F)F)cc2cn(C3CC3)nc12 [Example 992]
29 |  | > 6.30 | > 6.70 | Cc1cnc2c(OC(F)F)cc(C(=O)NC[C@](O)(c3cc4c(c(-c5ccc(F)c(F)c5F)n3)OC[C@]4(C)C(N)=O)C3CC3)cc2c1 [Example 527]
30 |  | > 6.30 | > 6.70 | C[C@]1(C(N)=O)COc2c1cc([C@@](O)(CNC(=O)c1cc(Cl)c3nn(C(F)F)cc3c1)C1CC1)nc2-c1ccc(F)c(Cl)c1F [Example 570]
31 | > 6.70 | > 6.30 |  | COc1cc(C(=O)NC[C@](O)(c2cc3c(c(-c4c(F)ccc(Cl)c4F)n2)OC[C@]3(C)C(N)=O)C2CC2)cc2cc(Cl)c(C)nc12 [Example 1168]
32 |  | > 6.30 | > 6.70 | COc1cc(C(=O)NC[C@](O)(c2cc3c(c(-c4ccc5c(c4)OC(F)(F)O5)n2)OC[C@]3(C)C(N)=O)C(F)(F)F)cc2cc(C3CC3)nn12 [Example 697]
33 | > 6.70 | > 6.30 |  | COc1cc(C(=O)NC[C@](O)(c2cc3c(c(-c4ccc5c(c4)OC(F)(F)O5)n2)OC[C@@]3(C(N)=O)C(F)F)C2CC2)cc2cn(C(F)F)nc12 [Example 1044]
34 | > 6.70 | > 6.30 |  | Cc1cnc2c(OC(F)F)cc(C(=O)NC[C@](O)(c3cc4c(c(-c5ccc6c(c5)OC(F)(F)O6)n3)OC[C@@]4(C(N)=O)C(F)F)C3CC3)cc2c1 [Example 1021]
35 | > 6.70 | > 6.30 |  | COc1cc(C(=O)NC[C@](O)(c2cc3c(c(-c4ccc(F)c(Cl)c4F)n2)OC[C@]3(C)C(N)=O)C2CC2)cc2cc(Br)c(Cl)nc12 [Example 1185]
